Assay results from ChEMBL document CHEMBL1144991, “Autoradiographic visualization of corticotropin releasing hormone type 1 receptors with a nonpeptide ligand: synthesis of [(76)Br]MJL-1-109-2” (J Med Chem, 2003).

Biological target: T1, Corticotropin-releasing factor receptor 1 (Rattus norvegicus, UniProt P35353)
T1 sequence (P35353 whole entry): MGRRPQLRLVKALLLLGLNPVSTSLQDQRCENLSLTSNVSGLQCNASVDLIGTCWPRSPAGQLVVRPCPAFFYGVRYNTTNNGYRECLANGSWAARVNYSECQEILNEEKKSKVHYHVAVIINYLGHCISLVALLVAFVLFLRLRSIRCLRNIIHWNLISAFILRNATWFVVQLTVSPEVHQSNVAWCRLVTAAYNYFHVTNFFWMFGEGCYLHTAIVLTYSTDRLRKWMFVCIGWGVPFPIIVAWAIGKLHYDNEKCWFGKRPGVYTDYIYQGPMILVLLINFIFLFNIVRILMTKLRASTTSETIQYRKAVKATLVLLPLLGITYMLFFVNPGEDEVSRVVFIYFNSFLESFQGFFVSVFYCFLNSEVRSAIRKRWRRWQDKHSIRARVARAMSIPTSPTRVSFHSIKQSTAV
Assay: Affinity for the Corticotropin releasing factor receptor 1 (CRHR1) was determined in rat brain
Assay type: tissue-based

Row | Ki [nM] | SMILES
1 | 1.9 | COCCN(CCOC)c1nc(C)nc2c(-c3ccc(Br)cc3Cl)c(C)nn12
2 | 1 | CCCCN(CC)c1nc(C)nc2c1c(C)c(C)n2-c1c(C)cc(C)cc1C [ANTALARMIN]
